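These data come from cells grown in 96-well plates and exposed to compound for 48 hours at five concentrations. TGI: total growth inhibition.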
What was measured:
Assay in all cases: inhibition of tumour cell growth, NCI panel, 48 h
[1] = system: DMS 273 small cell lung
[2] = system: EKVX NSCLC
[3] = system: SNB-19 CNS
[4] = system: NCI-H460 lung
[5] = system: PC-3 prostate
[6] = system: SNB-78 CNS
[7] = system: M19-MEL melanoma
[8] = system: OVCAR-4 ovarian
[9] = system: UO-31 renal
[10] = system: SK-MEL-5 melanoma
[11] = system: SW-620 colon
[12] = system: SR leukemia
[13] = system: CCRF-CEM leukemia
[14] = system: MDA-MB-231 breast
[15] = system: MDA-MB-435
[16] = system: A549 NSCLC
[17] = system: SNB-75 CNS
[18] = system: ACHN renal
[19] = system: MALME-3M melanoma
[20] = system: TK-10 renal
[21] = system: SF-539 CNS
[22] = system: UACC-257 melanoma
[23] = system: 786-0 renal
[24] = system: HS 578T breast
[25] = system: SK-MEL-2 melanoma
[26] = system: A498 renal
[27] = system: UACC-62 melanoma
[28] = system: U251 CNS
[29] = system: DMS 114 small cell lung
[30] = system: IGROV1 ovarian
[31] = system: HOP-18 NSCLC
[32] = system: DU-145 prostate
[33] = system: LXFL 529 NSCLC
[34] = system: NCI/ADR-RES ovarian
[35] = system: HCT-15 colon
[36] = system: HOP-92 NSCLC
[37] = system: HCC-2998 colon
[38] = system: MOLT-4 leukemia
[39] = system: HL-60(TB) leukemia
[40] = system: DLD-1 colon
[41] = system: COLO 205 colon
[42] = system: OVCAR-3 ovarian
[43] = system: XF 498 CNS
[44] = system: LOX IMVI melanoma
[45] = system: NCI-H226 lung
[46] = system: K-562 leukemia
[47] = system: SF-295 CNS
[48] = system: NCI-H23 lung
[49] = system: T-47D breast
[50] = system: SF-268 CNS
[51] = system: HOP-62 NSCLC
[52] = system: SN12C renal
[53] = system: CAKI-1 renal
[54] = system: KM20L2 colon
[55] = system: MCF7 breast
[56] = system: SK-OV-3 ovarian
[57] = system: HT29 colon
[58] = system: RXF 393 renal
[59] = system: OVCAR-5 ovarian
[60] = system: KM12 colon
[61] = system: OVCAR-8 ovarian
[62] = system: RPMI-8226 leukemia
[63] = system: NCI-H522 lung
[64] = system: HCT-116 colon
[65] = system: SK-MEL-28 melanoma
[66] = system: M14 melanoma
[67] = system: RXF-631 renal

## COc1cc(/C=C/c2ccc(/C=C/c3cc(OC)c(OC)c(OC)c3)cc2)cc(OC)c1OC
[1]
  TGI: > 48.9 µM
[2]
  TGI: > 69.1 µM
[3]
  TGI: 32.6 µM
[4]
  TGI: > 82 µM
[5]
  TGI: > 100 µM
[6]
  TGI: 85 µM
[7]
  TGI: > 100 µM
[8]
  TGI: 18.1 µM
[9]
  TGI: > 84.6 µM
[10]
  TGI: > 100 µM
[11]
  TGI: > 100 µM
[12]
  TGI: > 100 µM
[13]
  TGI: > 100 µM
[14]
  TGI: 52.7 µM
[15]
  TGI: > 100 µM
[16]
  TGI: > 100 µM
[17]
  TGI: 19.5 µM
[18]
  TGI: 44.5 µM
[19]
  TGI: 60.1 µM
[20]
  TGI: 39.5 µM
[21]
  TGI: 17.8 µM
[22]
  TGI: > 100 µM
[23]
  TGI: 20.7 µM
[24]
  TGI: 75.5 µM
[25]
  TGI: 53.9 µM
[26]
  TGI: 26.1 µM
[27]
  TGI: 25.1 µM
[28]
  TGI: 29.5 µM
[29]
  TGI: > 68.2 µM
[30]
  TGI: > 71.1 µM
[31]
  TGI: > 100 µM
[32]
  TGI: > 100 µM
[33]
  TGI: 35.9 µM
[34]
  TGI: > 100 µM
[35]
  TGI: > 100 µM
[36]
  TGI: 34.7 µM
[37]
  TGI: > 61.1 µM
[38]
  TGI: > 100 µM
[39]
  TGI: > 100 µM
[40]
  TGI: > 100 µM
[41]
  TGI: > 100 µM
[42]
  TGI: 77.3 µM
[43]
  TGI: 31.4 µM
[44]
  TGI: > 85.8 µM
[45]
  TGI: 49.7 µM
[46]
  TGI: > 100 µM
[47]
  TGI: 19.8 µM
[48]
  TGI: 25.2 µM
[49]
  TGI: 24 µM
[50]
  TGI: 42.5 µM
[51]
  TGI: 31.3 µM
[52]
  TGI: > 100 µM
[53]
  TGI: 72.3 µM
[54]
  TGI: > 76.3 µM
[55]
  TGI: > 100 µM
[56]
  TGI: 22.7 µM
[57]
  TGI: > 61.7 µM
[58]
  TGI: 20.4 µM
[59]
  TGI: > 100 µM
[60]
  TGI: > 77.4 µM
[61]
  TGI: 56.1 µM
[62]
  TGI: > 100 µM
[63]
  TGI: 27.2 µM
[64]
  TGI: > 100 µM
[65]
  TGI: > 100 µM
[66]
  TGI: > 100 µM

## S=C(N/N=C/c1ccccc1)NC12CC3CC(CC(C3)C1)C2
[1]
  TGI: 67.9 µM
[2]
  TGI: > 100 µM
[3]
  TGI: > 100 µM
[4]
  TGI: > 100 µM
[8]
  TGI: > 100 µM
[9]
  TGI: > 100 µM
[10]
  TGI: > 100 µM
[11]
  TGI: > 100 µM
[12]
  TGI: > 100 µM
[13]
  TGI: 92.4 µM
[16]
  TGI: > 100 µM
[18]
  TGI: > 100 µM
[20]
  TGI: > 100 µM
[21]
  TGI: > 100 µM
[22]
  TGI: > 100 µM
[23]
  TGI: > 100 µM
[25]
  TGI: > 100 µM
[26]
  TGI: > 100 µM
[27]
  TGI: > 100 µM
[28]
  TGI: > 100 µM
[30]
  TGI: > 100 µM
[33]
  TGI: > 100 µM
[35]
  TGI: > 100 µM
[36]
  TGI: 56.2 µM
[38]
  TGI: 74.2 µM
[39]
  TGI: > 100 µM
[41]
  TGI: 89.6 µM
[42]
  TGI: 83.4 µM
[43]
  TGI: > 100 µM
[44]
  TGI: 45.1 µM
[45]
  TGI: > 100 µM
[46]
  TGI: > 100 µM
[47]
  TGI: > 100 µM
[48]
  TGI: > 100 µM
[50]
  TGI: > 100 µM
[51]
  TGI: > 100 µM
[52]
  TGI: 48.8 µM
[53]
  TGI: > 100 µM
[54]
  TGI: 76.2 µM
[56]
  TGI: > 100 µM
[57]
  TGI: 26.5 µM
[67]
  TGI: > 100 µM
[58]
  TGI: > 100 µM
[59]
  TGI: > 100 µM
[60]
  TGI: > 100 µM
[61]
  TGI: > 100 µM
[62]
  TGI: 95.5 µM
[63]
  TGI: > 100 µM
[64]
  TGI: > 100 µM
[65]
  TGI: > 100 µM
[66]
  TGI: > 100 µM
